Measurements taken from patent US20190248834A1, “ENDOMORPHIN-2, TETRAPEPTIDE DERIVATIVES THEREOF, AND USES THEREOF” (priority 2016, published 2019).
Non-standard residues stand in square brackets, D forms with d. pGlu = O=C1CC[C@@H](C(=O)O)N1

Assays:
Format in all cases: in vivo, human
[1] = system: mechanically induced skin pain; assay: Example 91: experimentally induced skin pain (needle roller), topical; details: 1% (w/v) in WEP442, topical before and after wounding
Source text: A subject, rolled onto their left forearm with forceful pressure a roller having many tiny stainless steel needles 1 mm in length, which penetrated through the epidermis causing sharp pain as well as punctate bleeding.

bruised finger = assay: Example 37: analgesic effect on bruised finger, topical; details: 1% (w/v) in WEP442, topical
Source text: A subject, severely bruised their left 5th finger while trying to close a basement window in their house. The pain was intense, and associated with subcutaneous hemorrhage.

neck and shoulder pain = assay: Example 16: analgesic effect on neck and shoulder pain, topical; details: 0.5% (w/v) in WEP442, topical
Procedure: The subject could not move their neck without having a high level of pain and discomfort. The subject topically applied a composition containing 0.5% (w/v) N-Ac-Tyr-Pro-Phe-Phe-NH2(SEQ ID NO: 23) in WEP442 to the affected area of the skin. […] The pain relief lasted for more than 2 hours.

pain at injection sites = assay: Example 39: analgesic effect on pain at site of subcutaneous injection of hyaluronic acid, topical; details: 1% (w/v) in WEP442, topical
Source text: A subject, experienced substantial pain in the zygomatic-facial areas, sites injected subcutaneously with a hyaluronic acid product (Restylane) six hours earlier for the cosmetic purpose of plumping up the skin.

[2] = system: arthritic pain in upper back; assay: Example 20: analgesic effect on arthritic pain of upper back, topical
Procedure: A subject had arthritic pain in their upper back and associated paresthesia of their fingers, described as feelings of tingling and “pins and needles”. These symptoms had been present for about 1 year. […] Pain relief lasted for 10-12 hours. […] Repeated applications for 10-12 days gave the same results.

[3] = system: traumatized right big toe; assay: Example 34: analgesic effect on pain in big toe following trauma, topical; details: 1% (w/v) in WEP442, topical
Procedure: A subject, traumatized their right big toe while repositioning heavy furniture, and experienced disabling persistent pain of that toe. About 10 minutes after the trauma occurred, they topically applied a composition containing 1% (w/v) of N-Ac-Tyr-Pro-Phe-Phe-NH2 (SEQ ID NO: 23) in WEP442 to the toe.

sprain of the left ankle = assay: Example 21: analgesic effect on ankle sprain, topical
Source text: A subject, suffered a sprain of the left ankle after stepping on a stone while hiking, twisting the ankle inwardly. Ten days later, after wearing an elastic ankle support daily, pain from the injury persisted. The subject topically applied an anhydrous composition containing 0.7% (w/v) N-Ac-Tyr-Pro-Phe-Phe-NH2 (SEQ ID NO: 23) in EP73, formulated as described in Example 2. […] Upon arising the next morning, the subject experienced mild ankle pain, whereupon the composition was again applied. […] The subject was discomfort free thereafter.

[4] = system: severe pain on the left hip; assay: Example 89: analgesic effect on hip pain, topical; details: 1% (w/v) in WEP442, topical
Source text: A subject had severe lumber stenosis (lower back arthritis) for about 3 years caused by a fall from a ladder 7 years earlier. The subject had been pain free from lower back arthritis due to weekly acupuncture treatment, usually at 10 AM every Tuesday. On one Friday evening, the subject suddenly developed severe pain on the left hip and the pain persisted.

[5] = system: acute right temporal nauseating headache; assay: Example 49: topical treatment of severe right temporal headache; details: 1% (w/v) in WEP442, topical
Source text: They were given, by a nearby companion, a solution composition containing 1% (w/v) of N-Pg-Tyr-Pro-Phe-Phe-NH2 (SEQ ID NO: 44) in WEP442, which they topically applied to the right temporal area, right closed eyelids, entire forehead and right eyebrow.

pharyngitis = assay: Example 64: analgesic effect on pharyngitis, oral
Procedure: A subject developed a respiratory tract infection, symptoms of which included coughing and pharyngitis. Swallowing of saliva was very painful for the subject. […] A solution containing 0.5% (w/v) of N-Pg-Tyr-Pro-Phe-Phe-NH2 (SEQ ID NO: 44) in a mixture of propylene glycol (10 parts by volume) and glycerol (90 parts by volume) was prepared. One teaspoonful of the solution was held in the posterior part of the mouth for about one minute and then swallowed. […] Such relief of painful swallowing lasted for about 3 hours. Repeated administrations provided the same results.

headache = assay: Example 65: analgesic effect on headache, topical; details: 0.6% (w/v) in WEP442, topical
Source text: Several days after the incident causing the injury, they developed a bothersome headache, concentrated to the temporal areas.

painful tendonitis = assay: Example 50: topical treatment of painful tendonitis of right wrist and right thumb; details: 1% (w/v) in WEP442, topical
Source text: A subject with painful tendonitis after playing tennis topically applied a composition containing 1% (w/v) of N-Pg-Tyr-Pro-Phe-Phe-NH2 (SEQ ID NO: 44) in WEP442 to the right thumb and to the entire wrist.

discomfort of hands = assay: Example 63: analgesic effect on wrist and hand pain, topical; details: 0.5% (w/v) in WEP442, topical
Source text: A person hairdresser, after several hours of styling hair, experienced substantial discomfort on their hands that interfered with further pursuit of their work.

knee pain and foot pain = assay: Example 71: analgesic effect on foot sprain and knee pain following patella fracture, topical; details: 0.5% (w/v) in WEP442, topical
Source text: A subject suffered severe pain in their left knee and in the arch of their left foot following a forward fall to a wooden floor. Diagnoses of multiple fractures of the patella and a bruised foot were made by x-ray. Surgical repair of the knee was done, following which severe knee pain and acute pain in the arch of the foot persisted. […] Topical applications 3-4 times daily allowed the subject to pursue rehabilitation procedures pain free.

[6] = 0.7% (w/v) in EP73, first topical application
[7] = 0.7% (w/v) in EP73, second application
[8] = 0.5% (w/v) in propylene glycol/glycerol, oral

Q: What does the source list for `CC(=O)N[C@@H](Cc1ccc(O)cc1)C(=O)N1CCC[C@H]1C(=O)N[C@@H](Cc1ccccc1)C(=O)N[C@@H](Cc1ccccc1)C(N)=O` [N-Ac-Tyr-Pro-Phe-Phe-NH2]?
A: effect on sharp punctate pain [1]: did not prevent nor relieve the sharp punctate pain; pain relief (bruised finger): complete relief of pain; time to pain relief (bruised finger): ≤ 15 s; duration of pain relief (neck and shoulder pain): more than 2 hours; relief of pain in shoulder and neck (neck and shoulder pain): approximately 90%; time to pain relief (neck and shoulder pain): ≤ 2 min; pain relief (pain at injection sites): completely relieved the pain; recurrence (pain at injection sites): did not return; time to pain relief (pain at injection sites): ≤ 1 min; pain relief ([2]; 1% (w/v) in WEP442, daily topical to upper back): relieved the upper back pain completely; duration of pain relief ([2]; 1% (w/v) in WEP442, topical): 10 to 12 h; time to pain relief ([2]; 1% (w/v) in WEP442, topical): 3 to 4 min; paresthesia of the fingers ([2]; 1% (w/v) in WEP442, topical to upper back): persisted without any discernible change; pain relief [3]: Complete relief of pain; recurrence [3]: did not return; time to pain relief [3]: 15 to 30 s; pain relief (sprain of the left ankle; 0.7% (w/v) in EP73, application next morning, within about 5 minutes): no discomfort was discernible; pain relief (sprain of the left ankle; [6]): relieved almost completely; time to pain relief (sprain of the left ankle; [6]): 3 to 4 min; pain relief (sprain of the left ankle; [7]): complete relief of all discomfort; time to pain relief (sprain of the left ankle; [7]): ≤ 5 min; analgesic effect grade [4]: 4+ (4+ (90-100%): complete relief or eradication of pain for more than 4 hours); pain relief [4]: the pain disappeared; time to pain relief [4]: about 2 minutes; time without return of pain [4]: > 12 h

Q: “N-Pg-Tyr-Pro-Phe-Phe-NH2 ([pGlu]YPFF-NH2; SMILES NC(=O)[C@H](Cc1ccccc1)NC(=O)[C@H](Cc1ccccc1)NC(=O)[C@@H]1CCCN1C(=O)[C@H](Cc1ccc(O)cc1)NC(=O)[C@@H]1CCC(=O)N1)” was tested. Which pain relief [5] did it give?
A: The pain relief was “the headache subsided completely”.

Q: What about the recurrence [5] of the same molecule?
A: Its recurrence is “did not return”.

Q: And the “time to pain relief” value [5]?
A: Its value is 3 to 5 min.

Q: What about the “relief of painful swallowing” value (pharyngitis; 0.5% (w/v) in propylene glycol/glycerol 10:90, one teaspoonful held in mouth and swallowed) of the same molecule?
A: Its value is “swallowing of liquids and semi-solid food could be done without pharyngeal pain”.

Q: And the duration of relief (pharyngitis; [8])?
A: The duration of relief was “about 3 hours”.

Q: And the time to relief (pharyngitis; [8])?
A: Its time to relief is ≤ 10 min.

Q: And the headache relief (headache)?
A: Its headache relief is “almost immediate, complete relief of the headache”.

Q: What about the pain relief (painful tendonitis) of the same molecule?
A: The pain relief was “all pain and discomfort from any hand movements were gone”.

Q: What about the “time to pain relief” value (painful tendonitis) of the same molecule?
A: The value was 5 to 10 min.

Q: What about the “time without return of pain (follow up period)” value (painful tendonitis) of the same molecule?
A: Its value is ≥ 24 h.

Q: And the relief of discomfort (discomfort of hands)?
A: Its relief of discomfort is “complete relief”.

Q: What about the “duration of pain relief” value (knee pain and foot pain) of the same molecule?
A: Its value is “more than 6 hours”.

Q: And the pain relief (knee pain and foot pain)?
A: Its pain relief is “immediate and complete relief of knee pain and foot pain”.
